Laboratory results reported in patent US11351131B2, “Anti-inflammatory composition” (NEOPHARM CO., LTD., priority 2016, dated 2022).

Experiments:
[1] = system: IL-17A; test: Anti-inflammatory effect: IL-17A expression in atopic dermatitis-induced 3D skin model (immunohistochemistry); assay type: cell-based; settings: compared with the atopic dermatitis-induced skin model, 72 hours, quantified immunohistochemistry, read-out: IL-17A inhibitory effect
Procedure: (§1) In order to measure the anti-inflammatory efficacy, atopic dermatitis was induced with respect to IL-8 and IL-17A, which are inflammation-inducing cytokines, and expression amounts thereof were measured.
(§2) In order to induce atopic dermatitis, the 3D culture tissue (EpiDerm Full Thickness 400, sold by MatTek) media containing Poly (I:C), TNF-α, IL-4 and IL-13 were used, and treated for 72 hours with N-(2-hydroxyethyl)octanamide at a final concentration of 100 μM. Then, the 3D culture tissue was immobilized on formalin to make a paraffin block, and the degree of expression of inflammation-inducing cytokine was evaluated.
(§3) In FIG. 1, AD represents a skin model in which atopic dermatitis was induced, and the anti-inflammatory effect was evaluated based on the expression amounts of IL-8 and IL-17A.
(§4) Further, the inhibitory effect of each cytokine was quantified based on the results obtained through the immunohistochemistry obtained in FIG. 1, and shown in FIG. 2.

[2] = system: atopic dermatitis; test: Atopic dermatitis improvement effect (EASI score); assay type: in vivo, human; settings: 30 pediatric patients with atopic dermatitis, twice a day for 4 weeks
Procedure: In order to measure atopic dermatitis improvement effect, the anti-inflammatory compositions were prepared according to the following Examples. Here, the atopic dermatitis improvement effect was measured using an eczema area severity index (EASI) score. 30 pediatric patients with atopic dermatitis were treated twice a day for 4 weeks, and then effects on atopic symptoms were measured. Here, as a negative control group, a test group in which the active ingredient was not used was adopted.

[3] = system: IL-8; test: Anti-inflammatory effect: IL-8 expression in atopic dermatitis-induced 3D skin model (immunohistochemistry); assay type: cell-based; settings: compared with the atopic dermatitis-induced skin model, 72 hours, quantified immunohistochemistry, read-out: IL-8 inhibitory effect
Procedure: as §1, §2, §3, §4

[4] = system: human fibroblast (ATCC 2076); test: Confirmation of cytotoxicity (MTT cell viability); assay type: cell-based; settings: for Cell viability (%): human fibroblast, MTT
Procedure: The cell viability for human fibroblast (ATCC 2076) was measured using the anti-inflammatory composition prepared in the following Examples.
The human fibroblast (ATCC 2076) with a concentration of 5×10^4 cells/ml was inoculated into a 24-well culture plate of Iscove's Modified Dulbecco's Medium (IMDM, GIBCO) containing 10% bovine serum. […] Then, the supernatant was removed, the cells were washed with 200 μl of 5% phosphate buffered saline (PBS), 1.0 ml of MTT solution was added to each well, and after 4 hours, and the MTT was removed. Next, 1.0 ml of DMSO was added to each well, and incubation was performed overnight at 37° C. The absorbance at 570 nm was measured to determine the cell viability using Equation 1 below, and results thereof are shown in Table 1 below. Here, as a negative control group, a test group in which the active ingredient was not used was adopted. Cell viability (%)=(A570λ value/B570λ value)×100 [Equation 1]
A: Absorbance value at 570 nm of Example
B: Absorbance value at 570 nm of negative control group

CCCCCCCC(=O)NCCO [Example 1, N-(2-hydroxyethyl)octanamide]
inhibition at 100 µM [1]: ≥ 57.5% | Atopic dermatitis improvement effect (EASI score) [2]: significant numerical decrease | inhibition at 100 µM [3]: ≥ 48.6% | Cytotoxicity ([4]; in the concentration range of the evaluation method): no cytotoxicity | Cell viability (%) ([4]; used amount 0.00064 μM): 100% | Cell viability (%) ([4]; used amount 0.0032 μM): 102% | Cell viability (%) ([4]; used amount 0.016 μM): 97% | Cell viability (%) ([4]; used amount 0.08 μM): 98% | Cell viability (%) ([4]; used amount 0.4 μM): 98% | Cell viability (%) ([4]; used amount 2 μM): 101% | Cell viability (%) ([4]; used amount 10 μM): 103% | Cell viability (%) ([4]; used amount 50 μM): 98% | Cell viability (%) ([4]; used amount 250 μM): 109%
